What was measured:
γδ T cells = assay: Stimulation of γδ T cells / γδ T cell hybridomas in vitro; format: cell-based; details: for stimulation of γδ T cell hybridomas: phospholipids tested by the inventors
αβ T cell hybridomas = assay: Stimulation of αβ T cell hybridomas in vitro; format: cell-based

| Substance | stimulation of γδ T cell hybridomas (γδ T cells) | stimulation of αβ T cell hybridomas (αβ T cell hybridomas) | stimulation of γδ T cells by peptides (γδ T cells) |
| --- | --- | --- | --- |
| Cardiolipin | selectively stimulates γδ T cell hybridomas | not αβ T cell hybridomas |  |
| FALQLEL [SEQ ID NO:1] |  |  | stimulatory for γδ T cells |
| FGLQLEL (listed as Mycobacterium leprae) [SEQ ID NO:2, peptide from mycobacterial HSP-60 protein (from M. leprae)] |  |  | stimulatory for γδ T cells |
| phosphatidyl-glycerol | weakly stimulatory |  |  |

Reference: patent US7582300B2, “Modulation of gamma delta T cells to regulate airway hyperresponsiveness” (National Jewish Health, priority 1999, dated 2009)
